Where “and” joins values, the source holds several entries; their conditions need not be identical. Identical values can stand only once. Inconclusive results and toxic doses are left out. The calls were made as follows: active = survival T/C of 150% or more; inactive = T/C below 125% in these data.
Tested on: CD2F1 mice, L1210 leukemia ip, survival T/C
Assay: NCI In Vivo Anticancer Drug Screen. Data for tumor model L1210 Leukemia (intraperitoneal) in CD2F1 (CDF1) mice
Details: endpoint: mean survival time, higher = longer survival
Outline: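 In this screen, transplantable tumors were grown in mice given either the compound or its vehicle. Results were expressed as the treated measurement relative to the control measurement.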

[1] = dose: 50.0 mg/kg/injection, schedule: Q01DX009 (ip), vehicle: saline with Tween-80
[2] = dose: 100.0 mg/kg/injection, schedule: Q01DX009 (ip), vehicle: saline with Tween-80
[3] = dose: 200.0 mg/kg/injection, schedule: Q01DX009 (ip), vehicle: saline with Tween-80
[4] = dose: 100.0 mg/kg/injection, schedule: Q04DX002 (ip), vehicle: saline with Tween-80
[5] = dose: 200.0 mg/kg/injection, schedule: Q04DX002 (ip), vehicle: saline with Tween-80
[6] = dose: 100.0 mg/kg/injection, schedule: Q04DX003 (ip), vehicle: saline with Tween-80
[7] = dose: 200.0 mg/kg/injection, schedule: Q04DX003 (ip), vehicle: saline with Tween-80
[8] = dose: 400.0 mg/kg/injection, schedule: Q01DX009 (ip), vehicle: saline with Tween-80
[9] = dose: 400.0 mg/kg/injection, schedule: Q04DX003 (ip), vehicle: saline with Tween-80
[10] = dose: 12.5 mg/kg/injection, schedule: Q01DX005 (ip), vehicle: water
[11] = dose: 25.0 mg/kg/injection, schedule: Q01DX005 (ip), vehicle: water
[12] = dose: 50.0 mg/kg/injection, schedule: Q01DX005 (ip), vehicle: water
[13] = dose: 200.0 mg/kg/injection, schedule: Q01DX005 (ip), vehicle: water
[14] = dose: 400.0 mg/kg/injection, schedule: Q04DX002 (ip), vehicle: saline with Tween-80

Measured: T/C

CCOC(=O)NCC(Cl)(Cl)Cl
inactive: dose: 37.5 mg/kg/injection, schedule: Q01DX009 (ip), vehicle: saline with Tween-80 98 % of control | dose: 75.0 mg/kg/injection, schedule: Q01DX009 (ip), vehicle: saline with Tween-80 98 % of control | dose: 150.0 mg/kg/injection, schedule: Q01DX009 (ip), vehicle: saline with Tween-80 102 % of control

CCCCN1CCCC(O)C1 (stereo not given)
inactive: [1] 100 % of control | [2] 100 % of control | [3] 103 % of control

O/N=C/C(O)(c1ccccc1)c1ccccc1
inactive: [4] 107 % of control | [5] 100 % of control

COC(C(OC)N1CCOCC1)N1CCOCC1 (stereo not given)
inactive: [6] 89 % of control | [7] 89 % of control

OC(CCCCl)CC(O)(C(F)(F)F)C(F)(F)F (stereo not given)
inactive: [2] 102 % of control | [6] 108 % of control | [3] 94 % of control | [7] 89 % of control | [8] 86 % of control | [9] 94 % of control

CN(C)c1ccc(N=Nc2ccc(CI)cc2)cc1
inactive: dose: 25.0 mg/kg/injection, schedule: Q04DX003 (ip), vehicle: Klucel (hydroxypropylcellulose) (HPC) 89 % of control | dose: 50.0 mg/kg/injection, schedule: Q04DX003 (ip), vehicle: Klucel (hydroxypropylcellulose) (HPC) 112 % of control | dose: 100.0 mg/kg/injection, schedule: Q04DX003 (ip), vehicle: Klucel (hydroxypropylcellulose) (HPC) 96 % of control | dose: 200.0 mg/kg/injection, schedule: Q04DX003 (ip), vehicle: Klucel (hydroxypropylcellulose) (HPC) 93 % of control

Cc1ccc(NC(=O)c2ccccc2Cl)cc1C
inactive: [6] 97 % of control | [7] 103 % of control | [9] 93 % of control

CC(=O)Nc1cc2c(ncn2C2OC(CO)C(O)C2O)c(Br)n1 (stereo not given)
inactive: [10] 93 % of control | [11] 94 % of control | [12] 98 % of control | [13] 94 % of control

Cc1ccc(C(=O)N/N=C/C(=O)O)cc1
inactive: dose: 25.0 mg/kg/injection, schedule: Q01DX009 (ip), vehicle: water 102 % of control | dose: 50.0 mg/kg/injection, schedule: Q01DX009 (ip), vehicle: water 95 % of control | dose: 100.0 mg/kg/injection, schedule: Q01DX009 (ip), vehicle: water 102 % of control | dose: 200.0 mg/kg/injection, schedule: Q01DX009 (ip), vehicle: water 95 % of control

[I][Pt][I].c1ccc([PH+](c2ccccc2)c2ccccc2)cc1.c1ccc([PH+](c2ccccc2)c2ccccc2)cc1
inactive: dose: 6.25 mg/kg/injection, schedule: Q04DX002 (ip), vehicle: saline with Tween-80 104 % of control | dose: 12.5 mg/kg/injection, schedule: Q04DX002 (ip), vehicle: saline with Tween-80 93 % of control | dose: 25.0 mg/kg/injection, schedule: Q04DX002 (ip), vehicle: saline with Tween-80 96 % of control | [4] 87 % of control | [14] 91 % of control

C=CCCCCCCCCC(=O)NCCN1CCOCC1
inactive: [1] 100 % of control | [2] 96 % of control | [3] 88 % of control

O=C(O)C1C2CC3OC(=O)C1C3C2O (stereo not given)
inactive: [2] 91 % of control | [3] 93 % of control | [8] 96 % of control

O=CNNC=O
inactive: [2] 94 % of control | [6] 107 % of control | [3] 92 % of control | [7] 96 % of control | [8] 97 % of control | [9] 100 % of control

O=C(CC(=O)c1ccc(Cl)cc1)Cc1ccc2ccccc2n1
inactive: [4] 97 % of control | [5] 97 % of control | [14] 97 % of control

O=c1[nH]c2c(c(=O)n1-c1ccccc1)CCO2
inactive: dose: 100.0 mg/kg/injection, schedule: Q01DX001 (ip), vehicle: saline 98 % of control | dose: 200.0 mg/kg/injection, schedule: Q01DX001 (ip), vehicle: saline 91 % of control | dose: 400.0 mg/kg/injection, schedule: Q01DX001 (ip), vehicle: saline 98 % of control

O=C(O)/C=C/C(=O)NC1CCCCC1
inactive: [6] 97 % of control and 101 % of control | [7] 101 % of control and 97 % of control | [9] 98 % of control and 95 % of control

COC1=CC(=O)c2ccccc2C1=O
inactive: [6] 91 % of control | [7] 87 % of control

OC1CCC2CCCCC2C1 (stereo not given)
inactive: dose: 25.0 mg/kg/injection, schedule: Q04DX003 (ip), vehicle: saline 107 % of control | dose: 50.0 mg/kg/injection, schedule: Q04DX003 (ip), vehicle: saline 94 % of control | [6] 102 % of control | dose: 100.0 mg/kg/injection, schedule: Q04DX003 (ip), vehicle: saline 98 % of control | [7] 107 % of control | [9] 101 % of control

Nc1nccc2c1nnn2C1OC(CO)C(O)C1O (stereo not given)
inactive: [10] 102 % of control | [11] 104 % of control | [12] 96 % of control | dose: 100.0 mg/kg/injection, schedule: Q01DX005 (ip), vehicle: water 102 % of control | [13] 106 % of control
